Tested on: interstitiellen Kollagenase 1 (Matrixmetalloproteinase-1, MMP1)
Assay: Inhibition of UV-A-induced MMP1 mRNA expression in human dermal fibroblasts (real-time PCR, in vitro)
Format: cell-based
Conditions: 20 J/cm^2 UV-A, versus control
Excerpt: Es wird die Hemmung der UV-A-induzierten Genexpression am Beispiel der interstitiellen Kollagenase 1 (Matrixmetalloproteinase-1, MMP1) in humanen dermalen Fibroblasten untersucht. Die UV-A-induzierte Expression von MMP1 mRNS wird mittels Echtzeit PCR (Polymerase-Kettenreaktion) aus Zellen, die 24 Stunden nach der Bestrahlung mit 20 J/cm^2 geerntet worden sind, im Vergleich zu unbehandelten zeitgleichen Kontrollen bestimmt.
Da Serum Vitamin-A enthält, werden die verwendeten Zellkulturen für 24 Stunden serum-depriviert. Zur Kontrolle wird die Genexpression an unbehandelten Zellen ohne und mit UV-A-Bestrahlung ermittelt. In einer Konzentrationsreihe von 0,1 bis 30 µM an zugesetztem Retinol wird jeweils die Genexpression der unbestrahlten und der mit UV-A bestrahlten Zellkulturen bestimmt.
Wiederum wird eine Kontrollmessung der Genexpression an unbehandelten Zellkulturen mit und ohne UV-A-Bestrahlung durchgeführt. Den Zellkulturen wird in einer Konzentrationsreihe zwischen 5 und 100µM Generol® R, ein käuflich erwerbbares Produkt der Cognis France SA zugefügt. Generol® R ist eine Mischung aus verschiedenen Phytosterolen und wird aus Raps gewonnen. Generol® R besteht zu 40 bis 60% aus Sitosterol, 25 bis 40% Campesterol, 7 bis 18% Brassicasterol und einem geringem Anteil an Stigmasterol. Zum Erreichen der beschriebenen Konzentrationsreihe wurde Generol® R entsprechend verdünnt. […]

| Compound | Hemmung der MMP1-Expression (Vitamin-A 10-25 µM (series 0,1-30 µM Retinol), serum-deprived 24 h, cells harvested 24 h after irradiation) [%] | Hemmung der MMP1 mRNS-Expression (Vitamin-E-Sukzinat 10-75 µM, 24 h after irradiation) [%] |
| --- | --- | --- |
| CC1=C(/C=C/C(C)=C/C=C/C(C)=C/CO)C(C)(C)CCC1 [Vitamin-A, Retinol] | ≤ 82 |  |
| Cc1c(C)c2c(c(C)c1OC(=O)CCC(=O)O)CCC(C)(CCCC(C)CCCC(C)CCCC(C)C)O2 (centres unmarked) [Vitamin-E-Sukzinat] |  | ≤ 75 |

Reference: patent EP1779900A1, “Cosmetic or dermatological composition for prevention of light-induced aging” (Apotheker Walter Bouhon GmbH, priority 2005, dated 2007)
